Measurements as given in ChEMBL document CHEMBL1614632, “Trend analysis of a database of intravenous pharmacokinetic parameters in humans for 670 drug compounds” (Drug Metab Dispos, 2008).

How the values were obtained:
clinical [1] = conditions: human, in vivo, iv, Vdss
clinical [2] = conditions: human, in vivo, iv, CL
clinical [3] = conditions: human, in vivo, iv
clinical [4] = conditions: human, in vivo, iv, t1/2

SMILES	Vd (clinical [1])	clearance (clinical [2])	MRT (clinical [3])	half-life (clinical [4])
NS(=O)(=O)c1cc2c(cc1C(F)(F)F)NCNS2(=O)=O [HYDROFLUMETHIAZIDE]	2.2 L/kg	9.7 mL/min/kg	3.8 h	5.2 h
CN(C)C(=O)Oc1cccc([N+](C)(C)C)c1.[Br-] [NEOSTIGMINE BROMIDE]	0.74 L/kg	9.2 mL/min/kg	1.3 h	1.3 h
C[C@@H]1CC2=CC(=O)CC[C@]2(C)[C@H]2CC[C@@]3(C)[C@@H](CC[C@@H]3O)[C@]12C	0.8 L/kg	20 mL/min/kg	0.67 h	0.65 h
C=C(CC)C(=O)c1ccc(OCC(=O)O)c(Cl)c1Cl [ETHACRYNIC ACID]	0.26 L/kg	8.73 mL/min/kg	0.5 h	0.5 h
Cc1cc(=O)n(-c2ccccc2)n1C [ANTIPYRINE]	0.77 L/kg	0.64 mL/min/kg	20 h	12 h
C[C@]12CCC(=O)C=C1CC[C@@H]1[C@@H]2[C@@H](O)C[C@@]2(C)[C@H]1CC[C@]2(O)C(=O)CO [HYDROCORTISONE]	0.38 L/kg	5.7 mL/min/kg	1.9 h	1.6 h
NC(=O)NO [HYDROXYUREA]	0.52 L/kg	1.5 mL/min/kg	4.8 h	3.4 h
O=C(O)C(Cl)Cl [DICHLOROACETIC ACID]	0.19 L/kg	5.3 mL/min/kg	0.6 h	0.65 h
CCC(CC)COC(C(=O)OCCN(C)C)(c1ccccc1)c1ccccc1 [DENAVERINE]	7.1 L/kg	5.7 mL/min/kg	21 h	34 h
CN1CCN(C(=O)OC2c3nccnc3C(=O)N2c2ccc(Cl)cn2)CC1 (configuration not stated) [ZOPICLONE]	1.3 L/kg	3.3 mL/min/kg	6.6 h	5.2 h
CCC#CC[C@H](C)[C@H](O)C#C[C@@H]1[C@H]2C/C(=C/COCC(=O)O)C[C@H]2C[C@H]1O [CICAPROST]	0.08 L/kg	3.8 mL/min/kg	0.35 h	1.1 h
CCN(CC)CCCC(C)Nc1c2ccc(Cl)cc2nc2ccc(OC)cc12 (configuration not stated) [QUINACRINE]	45 L/kg	5.1 mL/min/kg	150 h	120 h
O=C1Cc2cc(CCN3CCN(c4nsc5ccccc45)CC3)c(Cl)cc2N1 [ZIPRASIDONE]	1 L/kg	5.1 mL/min/kg	3.3 h	3.1 h
COc1ccc2[nH]c([S+]([O-])Cc3ncc(C)c(OC)c3C)nc2c1 (configuration not stated) [OMEPRAZOLE]	0.24 L/kg	8.4 mL/min/kg	0.48 h	0.58 h
CC[C@H]1OC(=O)[C@H](C)[C@@H](O[C@H]2C[C@@](C)(OC)[C@@H](O)[C@H](C)O2)[C@H](C)[C@@H](O[C@@H]2O[C@H](C)C[C@H](N(C)C)[C@H]2O)[C@](C)(OC)C[C@@H](C)C(=O)[C@H](C)[C@@H](O)[C@]1(C)O [CLARITHROMYCIN]	1.5 L/kg	7.3 mL/min/kg	3.4 h	2.8 h
O=C(O)Cc1ccccc1Nc1c(Cl)cccc1Cl [DICLOFENAC]	0.22 L/kg	3.5 mL/min/kg	1 h	1.4 h
CCO[C@@H](Cc1ccc(OCCc2ccc(OS(C)(=O)=O)cc2)cc1)C(=O)O [TESAGLITAZAR]	0.13 L/kg	0.039 mL/min/kg	56 h	45 h
CCCCc1ncc(/C=C(\Cc2cccs2)C(=O)O)n1Cc1ccc(C(=O)O)cc1 [EPROSARTAN]	0.17 L/kg	1.9 mL/min/kg	1.5 h	2.1 h
COc1cccc2c1C(=O)c1c(O)c3c(c(O)c1C2=O)C[C@@](O)(C(=O)CO)C[C@@H]3O[C@H]1C[C@H](N)[C@H](O)[C@H](C)O1 [DOXORUBICIN]	22 L/kg	15 mL/min/kg	24 h	32 h
CC=CC1=C(C(=O)O)N2C(=O)[C@@H](NC(=O)[C@H](N)c3ccc(O)cc3)[C@H]2SC1 [CEFPROZIL]	0.21 L/kg	2.9 mL/min/kg	1.2 h	1.2 h
CNS(=O)(=O)Cc1ccc2[nH]cc(CCN(C)C)c2c1	1.7 L/kg	19 mL/min/kg	1.5 h	1.7 h
CC[C@H](C)C(=O)O[C@H]1C[C@@H](C)C=C2C=C[C@H](C)[C@H](CC[C@@H]3C[C@@H](O)CC(=O)O3)[C@H]21 [LOVASTATIN]	0.87 L/kg	7.2 mL/min/kg	1.3 h	1.4 h
CN1CC[C@]23c4c5ccc(O)c4O[C@H]2[C@@H](O[C@@H]2O[C@H](C(=O)O)[C@@H](O)[C@H](O)[C@H]2O)C=C[C@H]3[C@H]1C5 [MORPHINE GLUCURONIDE]	0.12 L/kg	2.2 mL/min/kg	0.91 h	1.4 h
CC[C@]1(O)C[C@@H]2CN(CCc3c([nH]c4ccccc34)[C@@](C(=O)OC)(c3cc4c(cc3OC)N(C)[C@H]3[C@@](O)(C(N)=O)[C@H](O)[C@]5(CC)C=CCN6CC[C@]43[C@@H]65)C2)C1 [VINDESINE]	5 L/kg	2.2 mL/min/kg	38 h	35 h

SMILES	Vd (clinical [1])	clearance (clinical [2])	MRT (clinical [3])	half-life (clinical [4])
Cc1nnc(SCC2=C(C(=O)O)N3C(=O)[C@@H](NC(=O)[C@H](O)c4ccccc4)[C@H]3SC2)s1	0.13 L/kg	2.6 mL/min/kg	0.83 h	1 h
OC(CNCC(O)C1CCc2cc(F)ccc2O1)C1CCc2cc(F)ccc2O1 (configuration not stated) [NEBIVOLOL]	11 L/kg	14 mL/min/kg	13 h	10 h
CCCCN1CCCCC1C(=O)Nc1c(C)cccc1C (configuration not stated) [BUPIVACAINE]	0.84 L/kg	4.3 mL/min/kg	3.3 h	3.1 h
COC(=O)C1=C(C)NC(C)=C(C(=O)OCC(C)C)C1c1ccccc1[N+](=O)[O-] (configuration not stated) [NISOLDIPINE]	5.5 L/kg	15 mL/min/kg	6.5 h	11 h
C[C@H](N[C@@H](CCc1ccccc1)C(=O)O)C(=O)N1Cc2ccccc2C[C@H]1C(=O)O	0.13 L/kg	0.93 mL/min/kg	2.3 h	2.3 h
COc1cc2nc(N(C)CCCNC(=O)C3CCCO3)nc(N)c2cc1OC (configuration not stated) [ALFUZOSIN]	1.5 L/kg	5.9 mL/min/kg	4.2 h	4.8 h
Cc1ccnc2c1NC(=O)c1cccnc1N2C1CC1 [NEVIRAPINE]	1.3 L/kg	0.3 mL/min/kg	81 h	53 h
C[C@]12CC[C@@H]3c4ccc(OC(=O)N(CCCl)CCCl)cc4CC[C@H]3[C@@H]1CC[C@@H]2OP(=O)(O)O [ESTRAMUSTINE PHOSPHATE]	0.12 L/kg	0.94 mL/min/kg	2.1 h	2.4 h
Cc1nccn1CC1CCc2c(c3ccccc3n2C)C1=O (configuration not stated) [ONDANSETRON]	1.8 L/kg	5.8 mL/min/kg	5.2 h	3.4 h
Nc1nc(=O)[nH]cc1F [FLUCYTOSINE]	0.68 L/kg	2 mL/min/kg	5.7 h	4.2 h
COc1cc(CC(=O)NCC(=O)N(CCC(=O)O)Cc2ccc(OC)c(OC)c2)ccc1NC(=O)Nc1ccccc1C	0.25 L/kg	11 mL/min/kg	0.38 h	1.6 h
CC[C@]1(O)C[C@H]2CN(CCc3c([nH]c4ccccc34)[C@@](C(=O)OC)(c3cc4c(cc3OC)N(C=O)[C@H]3[C@@](O)(C(=O)OC)[C@H](OC(C)=O)[C@]5(CC)C=CCN6CC[C@]43[C@@H]65)C2)C1 [VINCRISTINE]	2.4 L/kg	2 mL/min/kg	20 h	23 h
CCCCCNC(=N)N/N=C/c1c[nH]c2ccc(OC)cc12 [TEGASEROD]	5.3 L/kg	18 mL/min/kg	4.9 h	11 h
CN(C)Cc1nnc2n1-c1ccc(Cl)cc1C(c1ccccc1)=NC2 [ADINAZOLAM]	0.98 L/kg	6.2 mL/min/kg	2.6 h	2.1 h
NS(=O)(=O)c1cc(C2(O)NC(=O)c3ccccc32)ccc1Cl (configuration not stated) [CHLORTHALIDONE]	3.9 L/kg	1.5 mL/min/kg	43 h	36 h
Cc1cc(O)c2c(=O)c3c(O)cc(O)c4c5c(O)cc(O)c6c(=O)c7c(O)cc(CO)c8c1c2c(c34)c(c65)c78 [PSEUDOHYPERICIN]	0.56 L/kg	0.62 mL/min/kg	15 h	20 h
CN/C(=N/CCSCc1nc[nH]c1C)NC#N [CIMETIDINE]	1.2 L/kg	8.1 mL/min/kg	2.5 h	2.2 h
CN1Cc2c(N)cccc2C(c2ccccc2)C1 (configuration not stated) [NOMIFENSINE]	6 L/kg	22 mL/min/kg	4.5 h	6.5 h
CN1[C@@H]2CC[C@H]1C[C@@H](OC(=O)c1c[nH]c3ccccc13)C2 [TROPISETRON]	9.7 L/kg	26 mL/min/kg	6.3 h	5.6 h
C[C@H]1O[C@@H](O[C@H]2[C@@H](O)C[C@H](O[C@H]3[C@@H](O)C[C@H](O[C@H]4CC[C@@]5(C)[C@H](CC[C@@H]6[C@@H]5C[C@@H](O)[C@]5(C)[C@@H](C7=CC(=O)OC7)CC[C@]65O)C4)O[C@@H]3C)O[C@@H]2C)C[C@H](O)[C@@H]1O [DIGOXIN]	4.1 L/kg	1.7 mL/min/kg	40 h	38 h
CCCCCCCN(CC)CCCC(O)c1ccc(NS(C)(=O)=O)cc1 (configuration not stated) [IBUTILIDE]	12 L/kg	26 mL/min/kg	7.7 h	7 h
CC(=O)CCCCn1c(=O)c2c(ncn2C)n(C)c1=O [PENTOXIFYLLINE]	1.8 L/kg	39 mL/min/kg	0.77 h	1.2 h
CC(C)c1nc(N(C)S(C)(=O)=O)nc(-c2ccc(F)cc2)c1/C=C/[C@@H](O)C[C@@H](O)CC(=O)O [ROSUVASTATIN]	1.7 L/kg	11 mL/min/kg	2.6 h	2 h
O=C(O)c1cc(/N=N/c2ccc(O)c(C(=O)O)c2)ccc1O [OLSALAZINE]	0.07 L/kg	1.2 mL/min/kg	0.97 h	0.9 h
